In US20050137135A1 (priority 2002, published 2005):
Square brackets hold non-standard residues; d marks the D form. Ends that are not written are not given here. Peptide text beside a SMILES is read from it. Ahx = NCCCCCC(=O)O

Key:
[1] = target: T1, rat pancreatic islet (wild type) GIP-receptor (Rattus norvegicus, UniProt P43219); assay: biochemical; type: binding; details: for Percent displacement of 125I-GIP from wtGIPR cells: 50 micromolar peptide analogue, FIG. 9; for inhibition at 20 µM: read-out: Receptor Binding % Displacement at 20 μM; for Receptor Binding % Displacement at 10 μM: 10 μM peptide, 125I-GIP
T1 construct: expressed in transfected cells; host or cells: CHO-K1 (Chinese hamster ovary)
T1 sequence (P43219 19-455): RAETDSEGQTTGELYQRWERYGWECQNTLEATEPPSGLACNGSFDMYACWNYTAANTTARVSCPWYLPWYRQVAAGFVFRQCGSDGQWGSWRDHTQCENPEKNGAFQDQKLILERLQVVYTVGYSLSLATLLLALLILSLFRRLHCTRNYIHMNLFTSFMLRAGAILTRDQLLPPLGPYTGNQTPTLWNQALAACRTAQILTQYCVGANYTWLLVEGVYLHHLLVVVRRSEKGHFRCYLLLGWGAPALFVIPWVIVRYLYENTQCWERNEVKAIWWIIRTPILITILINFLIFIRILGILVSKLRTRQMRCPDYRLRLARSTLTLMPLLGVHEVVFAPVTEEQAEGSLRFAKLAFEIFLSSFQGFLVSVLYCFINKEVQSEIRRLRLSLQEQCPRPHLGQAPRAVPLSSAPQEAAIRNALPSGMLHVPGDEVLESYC
Description: (§1) Cells were cultured in DMEM/F12, supplemented with 10% newborn calf serum, 50 units/ml penicillin G, and 50 μg/ml streptomycin (Culture media and antibiotics from Gibco BRL, Life Technologies). Cells were grown in 75 cm^2 flasks until 80-90% confluent, when they were split and seeded onto 24 well plates at a density of 50,000 cells/well. Experiments were carried out 48 h later.
Binding studies using ^125I-labeled spGIP1-42, purified by high performance liquid chromatography (HPLC), were performed essentially as described previously-[21]. wtGIP-R1 Cells (1-5×10^5/well) were washed twice at 4° C. in binding buffer (BB), consisting of DMEM/F12 (GIBCO), 15 mM HEPES, 0.1% bovine serum albumin (BSA), 1% Trasylol (aprotinin; Bayer), pH 7.4. They were incubated for 12-16 h at 4° C. with ^125I-spGIP (50,000 cpm) in the presence or absence of unlabeled GIP1-42 or analogue. Following incubation, cells were washed twice with ice cold buffer, solubilized with 0.1 M NaOH (1 ml), and transferred to culture tubes for counting of cell-associated radioactivity. Nonspecific binding was defined as that measured in the presence of 1 μM GIP1-42 or GIP1-30, and specific binding expressed as % of binding in the absence of competitor (% B/Bo).

[2] = target: T1, rat pancreatic islet (wild type) GIP-receptor; assay: cAMP production in CHO-K1 cells expressing the GIP-receptor (wtGIP-R1 cells); type: cell-based; details: for cAMP Production Max. cAMP (Fold Basal): Table 3, cyclic AMP stimulated by 20 μM peptide if plateau levels were not achieved; for cAMP Production (Fold Basal) 10 μM: 10 μM peptide; for cAMP Production (Fold Basal) 10 μM / cAMP Production (Fold Basal) 20 μM: basal cyclic AMP = 2.737 ± 0.079 fmol/1000 cells; for cAMP Production (Fold Basal) 20 μM: 20 μM peptide
Description: as §1
Cells were extracted with 70% ethanol and cAMP levels measured by radioimmunoassay (Biomedical Technologies, Stoughton, Mass.). Data are expressed as fmol/1000 cells or % maximal GIP1-42-stimulated cAMP production (inhibition experiments).

Compound	cAMP Production Max. cAMP (Fold Basal) [2]	inhibition at 20 µM [1]	also measured
YAEGAFISDYSIAM-OH [A5]	–	–	Percent displacement of 125I-GIP from wtGIPR cells [1]: unable to displace measurable
CC[C@H](C)[C@H](NC(=O)[C@H](CO)NC(=O)[C@H](Cc1ccc(O)cc1)NC(=O)[C@H](CC(=O)O)NC(=O)[C@H](CO)NC(=O)[C@@H](NC(=O)[C@H](Cc1ccccc1)NC(=O)[C@@H](NC(=O)CNC(=O)[C@H](CCC(=O)O)NC(=O)[C@H](C)NC(=O)[C@@H](N)Cc1ccc(O)cc1)[C@@H](C)O)[C@@H](C)CC)C(=O)N[C@@H](C)C(=O)N[C@@H](CCSC)C(=O)NCCCCCC(=O)NCCCCCC(=O)N[C@@H](CCC(N)=O)C(=O)N[C@@H](CCC(N)=O)C(=O)N[C@@H](CC(=O)O)C(=O)N[C@@H](Cc1ccccc1)C(=O)N[C@H](C(=O)N[C@@H](CC(N)=O)C(=O)N[C@@H](Cc1c[nH]c2ccccc12)C(=O)N[C@@H](CC(C)C)C(=O)N[C@@H](CC(C)C)C(=O)N[C@@H](C)C(=O)N[C@@H](CCC(N)=O)C(=O)N[C@@H](CCCCN)C(N)=O)C(C)C [GIP(1-14)(Ahx)2(19-30)NH2] (H-YAEGTFISDYSIAM[Ahx][Ahx]QQDFVNWLLAQK-NH2; N-terminus assumed)	95.9 ± 3.2 Fold Basal	85.8 ± 1.6%	–
CC[C@H](C)[C@H](NC(=O)[C@H](CCCCN)NC(=O)[C@@H](N)CC(=O)O)C(=O)N[C@@H](Cc1c[nH]cn1)C(=O)N[C@@H](CCC(N)=O)C(=O)N[C@@H](CCC(N)=O)C(=O)N[C@@H](CC(=O)O)C(=O)N[C@@H](Cc1ccccc1)C(=O)N[C@H](C(=O)N[C@@H](CC(N)=O)C(=O)N[C@@H](Cc1c[nH]c2ccccc12)C(=O)N[C@@H](CC(C)C)C(=O)N[C@@H](CC(C)C)C(=O)N[C@@H](C)C(=O)N[C@@H](CCC(N)=O)C(=O)N[C@@H](CCCCN)C(=O)NCC(=O)N[C@@H](CCCCN)C(=O)N[C@@H](CCCCN)C(=O)N[C@@H](CC(N)=O)C(=O)N[C@@H](CC(=O)O)C(=O)N[C@@H](Cc1c[nH]c2ccccc12)C(=O)N[C@@H](CCCCN)C(=O)N[C@@H](Cc1c[nH]cn1)C(=O)N[C@@H](CC(N)=O)C(=O)N[C@H](C(=O)N[C@H](C(=O)N[C@@H](CCC(N)=O)C(=O)O)[C@@H](C)O)[C@@H](C)CC)C(C)C [15-42OH]	–	–	cAMP Production (Fold Basal) 10 μM [2]: 1.02 ± 0.10 Fold Basal; cAMP Production (Fold Basal) 20 μM [2]: 1.01 ± 0.03 Fold Basal
YAEGTFQQDFVNWLLAQK-NH2 [GIP(1-6)(19-30)NH2]	1.81 ± 0.42 Fold Basal	88.2 ± 0.7%	–
CC[C@H](C)[C@H](NC(=O)[C@H](CO)NC(=O)[C@H](Cc1ccc(O)cc1)NC(=O)[C@H](CC(=O)O)NC(=O)[C@H](CO)NC(=O)[C@@H](NC(=O)[C@H](Cc1ccccc1)NC(=O)[C@@H](NC(=O)CNC(=O)[C@H](CCC(=O)O)NC(=O)[C@H](C)NC(=O)[C@@H](N)Cc1ccc(O)cc1)[C@@H](C)O)[C@@H](C)CC)C(=O)N[C@@H](C)C(=O)N[C@@H](CCSC)C(=O)NCCCCCC(=O)NCCCCCC(=O)NCCCCCC(=O)N[C@@H](CCC(N)=O)C(=O)N[C@@H](CCC(N)=O)C(=O)N[C@@H](CC(=O)O)C(=O)N[C@@H](Cc1ccccc1)C(=O)N[C@H](C(=O)N[C@@H](CC(N)=O)C(=O)N[C@@H](Cc1c[nH]c2ccccc12)C(=O)N[C@@H](CC(C)C)C(=O)N[C@@H](CC(C)C)C(=O)N[C@@H](C)C(=O)N[C@@H](CCC(N)=O)C(=O)N[C@@H](CCCCN)C(N)=O)C(C)C [GlP(1-14)(Ahx)3(19-30)NH2] (H-YAEGTFISDYSIAM[Ahx][Ahx][Ahx]QQDFVNWLLAQK-NH2; N-terminus assumed)	49.5 ± 1.6 Fold Basal	82.7 ± 3.2%	–
CC[C@H](C)[C@H](NC(=O)[C@H](CO)NC(=O)[C@H](Cc1ccc(O)cc1)NC(=O)[C@H](CC(=O)O)NC(=O)[C@H](CO)NC(=O)[C@@H](NC(=O)[C@H](Cc1ccccc1)NC(=O)[C@@H](NC(=O)CNC(=O)[C@H](CCC(=O)O)NC(=O)[C@H](C)NC(=O)[C@@H](N)Cc1ccc(O)cc1)[C@@H](C)O)[C@@H](C)CC)C(=O)N[C@@H](C)C(=O)N[C@@H](CCSC)C(=O)N[C@@H](CC(=O)O)C(=O)N[C@@H](CCCCN)C(=O)N[C@H](C(=O)N[C@@H](Cc1c[nH]cn1)C(=O)N[C@@H](CCC(N)=O)C(=O)N[C@@H](CCC(N)=O)C(=O)N[C@@H](CC(=O)O)C(=O)N[C@@H](Cc1ccccc1)C(=O)N[C@H](C(=O)N[C@@H](CC(N)=O)C(=O)N[C@@H](Cc1c[nH]c2ccccc12)C(=O)N[C@@H](CC(C)C)C(=O)N[C@@H](CC(C)C)C(=O)N[C@@H](C)C(=O)N[C@@H](CCC(N)=O)C(=O)N[C@@H](CCCCN)C(=O)NCC(=O)N[C@@H](CCCCN)C(=O)N[C@@H](CCCCN)C(=O)N[C@@H](CC(N)=O)C(=O)N[C@@H](CC(=O)O)C(=O)N[C@@H](Cc1c[nH]c2ccccc12)C(=O)N[C@@H](CCCCN)C(=O)N[C@@H](Cc1c[nH]cn1)C(=O)N[C@@H](CC(N)=O)C(=O)N[C@H](C(=O)N[C@H](C(=O)N[C@@H](CCC(N)=O)C(=O)O)[C@@H](C)O)[C@@H](C)CC)C(C)C)[C@@H](C)CC [GIP(1-42)OH, reference compound]	–	100%	Receptor Binding % Displacement at 10 μM [1]: 100%
1-7NH2: GIP fragment 1-7 amide (YAEGTFI-NH2)	–	–	Receptor Binding % Displacement at 10 μM [1]: −6.1 ± 3.4%
YAEGTFAAAAQQDFVNWLLAQK-NH2 [GIP(l-6)(AAAA)(19-30)NH2]	7.21 ± 0.99 Fold Basal	88.7 ± 3%	–
YAAGTFISDYSIAM-OH [A3]	–	–	Percent displacement of 125I-GIP from wtGIPR cells [1]: unable to displace measurable
CC(C)C[C@H](NC(=O)[C@H](CC(C)C)NC(=O)[C@H](Cc1c[nH]c2ccccc12)NC(=O)[C@H](CC(N)=O)NC(=O)[C@@H](NC(=O)[C@H](Cc1ccccc1)NC(=O)[C@H](CC(=O)O)NC(=O)[C@H](CCC(N)=O)NC(=O)[C@H](CCC(N)=O)NC(=O)CCCCCNC(=O)CCCCCNC(=O)CCCCCNC(=O)[C@H](Cc1ccccc1)NC(=O)[C@@H](NC(=O)CNC(=O)[C@H](CCC(=O)O)NC(=O)[C@H](C)NC(=O)[C@@H](N)Cc1ccc(O)cc1)[C@@H](C)O)C(C)C)C(=O)N[C@@H](C)C(=O)N[C@@H](CCC(N)=O)C(=O)N[C@@H](CCCCN)C(N)=O [GIP(1-6)(Ahx)3(19-30)NH2] (H-YAEGTF[Ahx][Ahx][Ahx]QQDFVNWLLAQK-NH2; N-terminus assumed)	13.5 ± 1.5 Fold Basal	67.1 ± 1%	–
CC(C)C[C@H](NC(=O)[C@H](CC(C)C)NC(=O)[C@H](Cc1c[nH]c2ccccc12)NC(=O)[C@H](CC(N)=O)NC(=O)[C@@H](NC(=O)[C@H](Cc1ccccc1)NC(=O)[C@H](CC(=O)O)NC(=O)[C@H](CCC(N)=O)NC(=O)[C@H](CCC(N)=O)NC(=O)CCCCCNC(=O)[C@H](Cc1ccccc1)NC(=O)[C@@H](NC(=O)CNC(=O)[C@H](CCC(=O)O)NC(=O)[C@H](C)NC(=O)[C@@H](N)Cc1ccc(O)cc1)[C@@H](C)O)C(C)C)C(=O)N[C@@H](C)C(=O)N[C@@H](CCC(N)=O)C(=O)N[C@@H](CCCCN)C(N)=O [GIP(1-6)(Ahx)1(19-30)NH2] (H-YAEGTF[Ahx]QQDFVNWLLAQK-NH2; N-terminus assumed)	95.9 ± 8.6 Fold Basal	62 ± 4.3%	–
YAEGTFISDYSIAMAAAAQQDFVNWLLAQK-NH2 [GIP(1-14)(AAAA)(19-30)NH2]	82.1 ± 2.8 Fold Basal	100 ± 0.9%	–
YAEGTFISDYSIAMEKEKQQDFVNWLLAQK-NH2 [GIP(1-14)(EKEK)(19-30)NH2]	80.6 ± 5.6 Fold Basal	98.7 ± 1.1%	–
KIRQQDFVNWLLAQK-NH2 [16-30NH2]	–	–	cAMP Production (Fold Basal) 10 μM [2]: 1.04 ± 0.06 Fold Basal; cAMP Production (Fold Basal) 20 μM [2]: 0.80 ± 0.02 Fold Basal
